The test system of data set [1] is ALK5. Conditions: structure-activity relationship study of Li et al. ref 16; cited from earlier work.
A short description of data set [2]: in vitro. To be noted: human. Here is the method:
(§1) 5. Methods for In vitro characterizations of HYL001 […]
(§2) Rapid equilibrium dialysis was performed in triplicates with a rapid equilibrium dialysis (RED) by Sai Life Sciences Lt. (Telangana, India). The RED device contains a dialysis membrane with a molecular weight cut -off […]
(§3) of 8,000 Da, separating two chambers for plasma and buffer, respectively. […]
(§4) were added to the plasma chamber, versus phosphate buffer saline (pH 7.4) to the buffer chamber. Dialysis was performed for 4 h with 100 RPM shaking at 37 °C. […]
(§5) compounds in plasma were either frozen immediately (T0 sample), or incubated at 37 °C for 4 h without dialysis (non-dialysed), respectively.
(§6) Following dialysis, an aliquot was removed from either chamber and diluted with equal volume of opposite matrix to nullify the matrix effect. Similarly, buffer was added to recovery and stability samples. Next, acetonitrile (containing internal standard, glipizide) was added to the mixtures for protein precipitation and vortexed for 5 minutes. The samples were centrifuged at 4000 RPM at 4 °C for 10 min and the supernatant was submitted for liquid chromatography mass spectrometry (LC-MS/MS) analysis. Samples were monitored for parent compound using multiple reaction monitoring (MRM) mode.
(§7) The peak area ratios (PAR, analyte versus internal standard) in plasma vs bufffer were used to determine the fraction of compound bound to plasma proteins. The following equation was used to determine the extent of plasma protein binding: percent free drug = 100% x (PARbuffer / PARplasma); percent bound drug = 100 - % free drug. Recovery was calculated as 100% x (PARplasma + PARbuffer)dialysed / (PARplasma)non-dialysed; stability as 100% x (PAR)non-dialysed / (PARplasma)frozen at T0. […]

A short description of data set [3]: in vitro. Conditions: rat. Here is the method: as §1, §2, §3, §4, §5, §6, §7
Data set [4] can be described thus: in vitro. Conditions: mouse. Here is the method: as §1, §2, §3, §4, §5, §6, §7

For `Cc1cccc(-c2nn3c(c2-c2ccnc4ccc(Br)cc24)CCC3)n1` [6-Br, 6-Bromo-4-(2-(6-methylpyridin-2-yl)-5,6-dihydro-4H-pyrrolo[1,2-b]pyrazol-3-yl) Quinoline], the half-inhibitory concentration (IC50) in data set [1] was 89 nM.
For `CC(=O)CC(c1ccccc1)c1c(O)c2ccccc2oc1=O` (stereo not shown) [Warfarin, reference compound], the recovery at 4 h, 5 µM in data set [2] (pH 7.4) worked out at 100%; in data set [3] (pH 7.4) it was 98.6%; in data set [4] (pH 7.4), 99.9%. For the same compound, the “% Compound remaining at 4 hrs” value in data set [2] (plasma, 4 h, 5 µM) stood at 84.2%; in data set [3] (plasma, 4 h, 5 µM) it was 104.8%; in data set [4] (plasma, 4 h, 5 µM) it was 106.2%.

The IC50 is the midpoint of a concentration-inhibition curve.

Source of the values: PMC11729428, “New Potent Inhibitor of Transforming Growth Factor-Beta (TGFβ) Signaling that is Efficacious against Microsatellite Stable Colorectal Cancer Metastasis in Combination with Immune Checkpoint Therapy in Mice” (ACS Pharmacology & Translational Science, 2024).
